Test results taken from PMC9486129, “An evolutionary divergent thermodynamic brake in ZAP-70 fine-tunes the kinetic proofreading in T cells” (The Journal of Biological Chemistry, 2022).
Substitutions are numbered along the chain they refer to. Values joined by “and” are separate entries in the source; they are usually repeats but may differ in a detail not shown here. Equal entries are not always repeated. Where a SMILES comes first, the peptide text is derived from it. [ ]: non-standard residue; d: D form. pY = N[C@@H](Cc1ccc(OP(=O)(O)O)cc1)C(=O)O

Columns and labels:
Syk tSH2 domain = target: T1, Syk tSH2 domain (Homo sapiens, UniProt P43405); assay: Steady-state intrinsic tryptophan fluorescence titration, Syk tSH2; type: binding; details: 25 °C, 0.5 μM tSH2, SD from three independent experiments
T1 construct: Syk tSH2 (7–263), cloned in pGEX6P1 vector; GST (N, cleaved yes); host or cells: E. coli BL21(DE3)
Experimental: (§1) The dissociation constant ( Kd ) was derived by fitting the normalized intensity (F0/F) versus ligand concentration using the following equation: F0/F=Bmax∗X^nH/(Kd^nH+X^nH) where F0 and F is fluorescence intensity in absence and presence of ligand, respectively. Bmax is the maximum binding, and nH is the Hill coefficient. The Hill coefficient (nH) was also determined from Hill plot ([70]).

tSH2R192A of ZAP-70 = target: T2, tSH2R192A of ZAP-70 (Homo sapiens, UniProt P43403); assay: Isothermal titration calorimetry, ZAP-70 tSH2R192A (C-SH2 mutant)
T2 sequence (P43403 1-256 R190A): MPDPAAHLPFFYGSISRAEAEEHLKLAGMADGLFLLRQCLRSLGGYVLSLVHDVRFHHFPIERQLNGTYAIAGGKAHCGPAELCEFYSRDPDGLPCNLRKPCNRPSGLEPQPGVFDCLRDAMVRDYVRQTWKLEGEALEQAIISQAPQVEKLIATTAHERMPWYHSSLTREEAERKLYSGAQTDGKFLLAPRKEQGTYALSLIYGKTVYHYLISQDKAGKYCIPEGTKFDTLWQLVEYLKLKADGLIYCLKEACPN
Experimental: We probed Kd1 and Kd1∗ by fluorescence spectroscopy and Kd2 and Kd1∗ by ITC. To probe the Kd2 , we used ^tSH2R190A mutant that impairs phosphotyrosine binding to C-SH2 PBP (Figs. 1E and S1F).
ITC studies were carried out using Malvern-PEAQ_ITC at 20 °C. […] The Kd , ΔH, and ΔS were fitted into two-site sequential fit using ORIGIN as described previously ([33]). In the ITC experiments with C-SH2 domain mutant (R190A), the protein was buffer exchanged to 20 mM Hepes pH 8.2, 150 mM NaCl, and 5 mM β-mercaptoethanol.

ZAP-70 tSH2 domain = target: T3, ZAP-70 tSH2 domain (Homo sapiens, UniProt P43403); assay: Stopped-flow fluorescence binding kinetics, ZAP-70 tSH2 wild type; details: 10 °C
T3 construct: ZAP-70 tSH2 WT (1–256), cloned in pSKB2 vector; made in house; host or cells: E. coli BL21(DE3)
T3 sequence (P43403 1-256): T2 sequence (P43403 1-256 R190A) with A190R
Experimental: We observed that the fluorescence intensity decay in two steps, fast (<200 ms) and slow (>20 s) (Fig. 3A). […] All kinetic data were first normalized against the highest intensity and then subtracted by the blank (protein only sample) (Fig. 3, A and B) and fitted to a one-site association kinetics (Table 1).
The change in fluorescence intensity was measured at λex 290 nm, λem 350 nm, and 10 °C ([71]). […] Each transient was measured over 200s (for slow kinetics) or 1s (for fast kinetics), interval with 1500 and 101 time points, respectively. For each sample, a blank dataset was recorded by measuring the change in intensity for protein only. Each data set was normalized against the maximum intensity observed for the respective sample at time 0. The normalized sample was further corrected by blank subtraction. The observed rate (kobs) was derived by fitting the change in intensity with respect to time by fitting to association kinetics equation implemented in Prism. Y=Y0+(Ymax−Y0)(1−e^[…]) where, Y0 is the intensity at time 0, Ymax is the maximum intensity, k is rate constant.

tSH2 domain of ZAP-70 = target: T4, tSH2 domain of ZAP-70 (Homo sapiens, UniProt P43403); assay: Steady-state intrinsic tryptophan fluorescence titration, ZAP-70 tSH2 wild type; type: binding
T4 construct: ZAP-70 tSH2 WT (1–256), cloned in pSKB2 vector; made in house; host or cells: E. coli BL21(DE3)
T4 sequence (P43403 1-256): T2 sequence (P43403 1-256 R190A) with A190R
Experimental: as §1

Row | Kd (Syk tSH2 domain) | Kd (tSH2R192A of ZAP-70) [µM] | kobsfast (ZAP-70 tSH2 domain; 100 nM tSH2, 30 μM peptide, 20 mM Tris pH 8.0, 150 mM NaCl, 5% glycerol, 5 mM β-mercaptoethanol, λex 290/λem 350 nm, 1 s transients, SD from three independent experiments) [s⁻¹] | Slow binding step (in words) (ZAP-70 tSH2 domain; wild-type tSH2) | Subsequent (second) binding step (tSH2 domain of ZAP-70) | SMILES
1 | 0.0698 µM and 0.065 to 0.07 µM | 12 ± 0.9 |  |  |  | CC(C)C[C@H](NC(=O)CNC(=O)[C@@H](N)CC(=O)O)C(=O)N[C@@H](Cc1ccc(OP(=O)(O)O)cc1)C(=O)N[C@@H](CCC(N)=O)C(=O)NCC(=O)N[C@@H](CC(C)C)C(=O)N[C@@H](CO)C(=O)N[C@H](C(=O)N[C@@H](C)C(=O)N[C@H](C(=O)N[C@@H](CCCCN)C(=O)N[C@@H](CC(=O)O)C(=O)N[C@H](C(=O)N[C@@H](Cc1ccc(OP(=O)(O)O)cc1)C(=O)N[C@@H](CC(=O)O)C(=O)N[C@@H](C)C(=O)N[C@@H](CC(C)C)C(=O)N[C@@H](Cc1c[nH]cn1)C(=O)O)[C@@H](C)O)[C@@H](C)O)[C@@H](C)O [ITAM-Y2P-ζ3] (H-DGL[pY]QGLSTATKDT[pY]DALH-OH)
2 |  | 9.8 ± 0.75 |  |  |  | CC(C)C[C@H](NC(=O)[C@H](CC(N)=O)NC(=O)[C@H](CC(C)C)NC(=O)[C@H](CCC(=O)O)NC(=O)[C@H](CC(N)=O)NC(=O)[C@H](Cc1ccc(OP(=O)(O)O)cc1)NC(=O)[C@H](CC(C)C)NC(=O)[C@H](CCC(N)=O)NC(=O)[C@@H](N)CC(N)=O)C(=O)NCC(=O)N[C@@H](CCCNC(=N)N)C(=O)N[C@@H](CCCNC(=N)N)C(=O)N[C@@H](C)C(=O)N[C@@H](CCC(=O)O)C(=O)N[C@@H](Cc1ccc(OP(=O)(O)O)cc1)C(=O)N[C@@H](CC(=O)O)C(=O)N[C@H](C(=O)N[C@@H](CC(C)C)C(=O)N[C@@H](CC(=O)O)C(=O)O)C(C)C [ITAM-Y2P-ζ1 E13A]
3 |  |  | 28.60 ± 5.84 | no detectable slow binding | no subsequent binding was observed | CC(C)C[C@H](NC(=O)[C@H](CC(N)=O)NC(=O)[C@H](CC(C)C)NC(=O)[C@H](CCC(=O)O)NC(=O)[C@H](CC(N)=O)NC(=O)[C@H](Cc1ccc(OP(=O)(O)O)cc1)NC(=O)[C@H](CC(C)C)NC(=O)[C@H](CCC(N)=O)NC(=O)[C@@H](N)CC(N)=O)C(=O)NCC(=O)N[C@@H](CCCNC(=N)N)C(=O)N[C@@H](CCCNC(=N)N)C(=O)N[C@@H](CCC(=O)O)C(=O)N[C@@H](CCC(=O)O)C(=O)N[C@@H](Cc1ccc(O)cc1)C(=O)N[C@@H](CC(=O)O)C(=O)N[C@H](C(=O)N[C@@H](CC(C)C)C(=O)N[C@@H](CC(=O)O)C(=O)O)C(C)C [ITAM-YP-ζ1]
